This assay concerns the target BRD4 (BD1+BD2) bromodomain (Homo sapiens (Human), UniProt O60885). Kind of assay: BRD4 binding inhibition (AlphaScreen, GST-BRD4 vs tetraacetylated histone H4 peptide). As for the experimental part: A mixture comprising 100 nM GST-BRD4 (BD1+BD2) and 100 nM biotinylated acetyl-histone H4 (Lys5,8,12,16) peptide was prepared in assay buffer (50 mM HEPES pH 7.4; 25 mM NaCl; 0.05% Tween 20; 0.1% bovine serum albumin (BSA); 10 mM dithiothreitol (DTT)). After adding 6 μl of the mixture to the diluent, 6 μl of the pre-mixed AlphaLISA Glutathione Acceptor Beads and AlphaScreen Streptavidin Donor Beads (PerkinElmer, 10 μg/ml in assay buffer, respectively) was added thereto. The samples were incubated in the dark at room temperature for 30 minutes (shaking at 300 rpm). Then, the signals were measured with PerkinElmer Envision HTS Multilabel Reader using an alpha screen protocol of PerkinElmer. Each plate contained the negative control in which biotinylated acetyl-histone H4 peptide and GST-BRD4 (BD1+BD2) were replaced by assay buffer. In the case of using the software GraphPad Prism for calculation, the negative control point was input as a low standard value. The positive control (probe molecule l-BET762 containing protein/peptide mixture) proceeded to pipetting.

Setting [1] is: GST-BRD4 (BD1+BD2) / biotinylated acetyl-histone H4 (Lys5,8,12,16) peptide, read-out: IC50, BRD4 binding inhibition.
The mark [2] stands for this setting: GST-BRD4 (BD1+BD2) vs biotinylated acetyl-histone H4 peptide, AlphaScreen, read-out: BRD4 IC50.

Where “and” joins values, the source holds several entries; their conditions need not be identical. Identical values can stand only once. Like-named read-outs stand apart in the source and are kept apart here.

As a reminder, the IC50 is the point on the concentration scale where inhibition reaches its midpoint.

As for `Cc1nnc2c(NCCCCNC(=O)c3ccc(Cl)nc3)nc3ccccc3n12` [Example 20, 6-chloro-N-[4-(1-methyl-[1,2,4]triazolo[4,3-a]quinoxaline-4-ylamino)-butyl]-nicotinamide], the IC50 under setting [1] is no more than 0.05 µM and the half-maximal inhibitory concentration (IC50) under setting [2] came to 0.043 µM.
Regarding `Cc1nnc2c(NCCCCNC(=O)[C@H](O)C(C)C)nc3cc4c(cc3n12)OCCO4` [Example 182, 2-(R)-hydroxy-3-methyl-N-[4-(1-methyl-8,9-dihydro-7,10-dioxa-2,3,5,11b-tetraaza-cyclopenta[a]anthracene-4-ylamino)-butyl]-butyramide], the IC50 is, setting by setting: under setting [1], no more than 0.05 µM; under setting [2], 0.022 µM.
For `COc1ccc2c(c1)nc(NCCCCNC(=O)C(C)(C)OC(C)=O)c1nnc(C)n12` [Example 296, acetic acid-1-[4-(7-methoxy-1-methyl-[1,2,4]triazolo[4,3-a]quinoxaline-4-ylamino)-butylcarbamoyl]-1-methyl-ethylester], the IC50 is, setting by setting: under setting [1], no more than 0.05 µM; under setting [2], 0.096 µM and 0.027 µM.
Turning to `COc1ccc2c(c1)nc(NCCCCNC(=O)COC(C)=O)c1nnc(C)n12` [Example 303, acetic acid-[4-(7-methoxy-1-methyl-[1,2,4]triazolo[4,3-a]quinoxaline-4-ylamino)-butylcarbamoyl]-methylester], the IC50 under setting [2] is 0.063 µM.
Regarding `Cc1nnc2c(NCCCCNC(=O)OC(C)(C)C)nc3ccc(Cl)cc3n12` [Example 54, [4-(8-chloro-1-methyl-[1,2,4]triazolo[4,3-a]quinoxaline-4-ylamino)-butyl]-carbamic acid-tert-butylester], the IC50 was no more than 0.05 µM under setting [1] and 0.05 µM under setting [2].
On to `Cc1nnc2c(NCCCCNC(=O)OC(C)(C)C)nc3ccc(C(N)=O)cc3n12` [Example 533, [4-(8-carbamoyl-1-methyl-[1,2,4]triazolo[4,3-a]quinoxaline-4-ylamino)-butyl]-carbamic acid-tert-butylester], for which, under setting [2], the IC50 amounted to 0.067 µM.
In the case of `Cc1ccc2nc(NCCCCNC(=O)OC(C)(C)C)c3nnc(C)n3c2c1` [Example 40, [4-(1,8-dimethyl-[1,2,4]triazolo[4,3-a]quinoxaline-4-ylamino)-butyl]-carbamic acid-tert-butylester], the IC50 under setting [2] amounted to 0.069 µM.
Regarding `COc1cc2nc(NCCCCNC(=O)C(C)(C)C)c3nnc(C)n3c2cc1C(F)(F)F` [Example 477, N-[4-(7-methoxy-1-methyl-8-trifluoromethyl-[1,2,4]triazolo[4,3-a]quinoxaline-4-ylamino)-butyl]-2,2-dimethyl-propionamide], the IC50 is no more than 0.05 µM under setting [1] and 0.02 µM under setting [2].
For `Cc1nnc2c(NCCCCNC(=O)CC(C)C)nc3cc(N4CCSCC4)ccc3n12` [Example 523, 3-methyl-N-[4-(1-methyl-7-thiomorpholine-4-yl-[1,2,4]triazolo[4,3-a]quinoxaline-4-ylamino)-butyl]-butyramide], the IC50 under setting [2] was 0.054 µM.
With `Cc1ccc(C(=O)NCCCCNc2nc3ccccc3n3c(C)nnc23)c(Cl)n1` [Example 21, 2-chloro-6-methyl-N-[4-(1-methyl-[1,2,4]triazolo[4,3-a]quinoxaline-4-ylamino)-butyl]-nicotinamide], under setting [2], the IC50 was found to be 0.057 µM.
For the molecule `COc1ccc2c(c1)nc(NCCCCNC(=O)OCC(C)C)c1nnc(C(C)C)n12` [Example 629, [4-(1-isopropyl-7-methoxy-[1,2,4]triazolo[4,3-a]quinoxaline-4-ylamino)-butyl]-carbamic acid isobutylester], the IC50 was no more than 0.05 µM under setting [1] and 0.016 µM under setting [2].
With `COc1c(C)ccc2c1nc(NCCCCNC(=O)c1ccccc1F)c1nnc(C)n12` [Example 139, 2-fluoro-N-[4-(6-methoxy-1,7-dimethyl-[1,2,4]triazolo[4,3-a]quinoxaline-4-ylamino)-butyl]-benzamide], the IC50 by setting is: under setting [1], no more than 0.05 µM; under setting [2], 0.04 µM.
As to `Cc1noc(C)c1-c1ccc2nc(NCCCCNC(=O)[C@@H](O)C(C)C)c3nnc(C)n3c2c1` [Example 582, N-{4-[8-(3,5-dimethyl-isoxazol-4-yl)-1-methyl-[1,2,4]triazolo[4,3-a]quinoxaline-4-ylamino]-butyl}-2-(S)-hydroxy-3-methyl-butyramide], the IC50 reads like this: under setting [1], no more than 0.01 µM; under setting [2], 0.01 µM.
The like results for `Cc1nnc2c(NCCCCNC(=O)c3ccccc3)nc3cc(Cl)c(Cl)cc3n12` [Example 31, N-[4-(7,8-dichloro-1-methyl-[1,2,4]triazolo[4,3-a]quinoxaline-4-ylamino)-butyl]-benzamide] were, in that order, no more than 0.05 µM and 0.031 µM.
For `COCCOc1ccc2c(c1)nc(NCCCCNC(=O)[C@@H](NS(C)(=O)=O)C(C)C)c1nnc(C)n12` [Example 405, 2-(S)-methanesulfonylamino-{4-[7-(2-methoxy-ethoxy)-1-methyl-[1,2,4]triazolo[4,3-a]quinoxaline-4-ylamino]-butyl}-3-methyl-butyramide], under setting [1], the IC50 was no more than 0.05 µM.
Regarding `COCCn1c(-c2ccc3c(c2)nc(NCCCCNC(=O)CC(C)C)c2nnc(C)n23)nc2ccccc21` [Example 241, N-(4-{7-[1-(2-methoxy-ethyl)-1H-benzoimidazole-2-yl]-1-methyl-[1,2,4]triazolo[4,3-a]quinoxaline-4-ylamino}-butyl)-3-methyl-butyramide], the IC50 is no more than 0.01 µM under setting [1] and 0.007 µM under setting [2].
`Cc1nnc2c(NCCCCNC(=O)OC(C)(C)C)nc3cc(C(=O)O)ccc3n12` [Example 200, 4-[(4-tert-butoxycarbamoylamino)-butylamino]-1-methyl-[1,2,4]triazolo[4,3-a]quinoxaline-7-carboxylic acid]: the IC50 under setting [2] was found to be 0.071 µM.
Regarding `COc1ccc2c(c1)nc(NCCCCNC(=O)[C@@H](N)Cc1ccc(O)cc1)c1nnc(C)n12` [Example 326, 2-(S)-amino-3-(4-hydroxy-phenyl)-N-[4-(7-methoxy-1-methyl-[1,2,4]triazolo[4,3-a]quinoxaline-4-ylamino)-butyl]-propionamide], the IC50 under setting [2] was 0.064 µM.
Take `COc1cc2nc(NCCCCC(=O)NC(C)C)c3nnc(C)n3c2cc1OC` [Example 647, 5-(7,8-dimethoxy-1-methyl-[1,2,4]triazolo[4,3-a]quinoxaline-4-ylamino)-pentanoic acid-isopropylamide]: the IC50 is no more than 0.05 µM under setting [1] and 0.029 µM under setting [2].
With `COc1cc2nc(NCCCCCNC(=O)OC(C)(C)C)c3nnc(C)n3c2cc1OC` [Example 642, [5-(7,8-dimethoxy-1-methyl-[1,2,4]triazolo[4,3-a]quinoxaline-4-ylamino)-pentyl]-carbamic acid-tert-butylester], the half-maximal inhibitory concentration (IC50) under setting [2] was 0.056 µM.
Turning to `COc1ccc2nc(NCCCCNC(=O)[C@H](O)C(C)C)c3nnc(C)n3c2c1` [Example 125, 2-(R)-hydroxy-N-[4-(8-methoxy-1-methyl-[1,2,4]triazolo[4,3-a]quinoxaline-4-ylamino)-butyl]-3-methyl-butyramide], the half-inhibitory concentration (IC50) under setting [1] is no more than 0.05 µM and the IC50 under setting [2] worked out at 0.031 µM.
`COc1cccc2c1nc(NCCCCNC(=O)C(C)(C)C)c1nnc(C)n12` [Example 119, N-[4-(6-methoxy-1-methyl-[1,2,4]triazolo[4,3-a]quinoxaline-4-ylamino)-butyl]-2,2-dimethyl-propionamide]: the half-inhibitory concentration (IC50) under setting [2] came to 0.079 µM.
On to `COc1cc2nc(NCCCCNC(=O)c3ccc(Cl)cc3)c3nnc(C)n3c2cc1OC` [Example 100, 4-chloro-N-[4-(7,8-dimethoxy-1-methyl-[1,2,4]triazolo[4,3-a]quinoxaline-4-ylamino)-butyl]-benzamide], for which the IC50 under setting [2] was found to be 0.069 µM.
For `Cc1nnc2c(NCCCCNC(=O)OC(C)(C)C)nc3cc(C(=O)NCc4ccc(Cl)cc4)ccc3n12` [Example 211, {4-[7-(4-chloro-benzylcarbamoyl)-1-methyl-[1,2,4]triazolo[4,3-a]quinoxaline-4-ylamino]-butyl}-carbamic acid-tert-butylester], the half-maximal inhibitory concentration (IC50) under setting [1] is no more than 0.05 µM and the IC50 under setting [2] came out at 0.034 µM.
For the molecule `COCCOc1ccc2c(c1)nc(NCCCCNC(=O)c1ccncc1)c1nnc(C)n12` [Example 418, N-{4-[7-(2-methoxy-ethoxy)-1-methyl-[1,2,4]triazolo[4,3-a]quinoxaline-4-ylamino]-butyl}-isonicotinamide], the IC50 is no more than 0.05 µM under setting [1] and 0.049 µM under setting [2].
As to `COc1ccc2c(c1)nc(NCCCCNC(=O)[C@H](C(C)C)N1CCOCC1)c1nnc(C)n12` [Example 314, N-[4-(7-methoxy-1-methyl-[1,2,4]triazolo[4,3-a]quinoxaline-4-ylamino)-butyl]-3-methyl-2-(S)-morpholine-4-yl-butyramide], the IC50 under setting [2] came to 0.056 µM.
For the molecule `COCCOc1ccc2c(c1)nc(NCCCCNC(=O)C(C)(C)OC(C)=O)c1nnc(C)n12` [Example 384, acetic acid-1-{4-[7-(2-methoxy-ethoxy)-1-methyl-[1,2,4]triazolo[4,3-a]quinoxaline-4-ylamino]-butylcarbamoyl}-1-methyl-ethylester], the IC50 was no more than 0.05 µM under setting [1] and 0.041 µM under setting [2].
For `COc1cc2nc(NCCCCNC(=O)COC(C)=O)c3nnc(C)n3c2cc1OC` [Example 87], the half-inhibitory concentration (IC50) is no more than 0.05 µM under setting [1] and 0.027 µM under setting [2].
Take `Cc1nnc2c(NCCCCNC(=O)OC(C)(C)C)nc3ccc(F)cc3n12` [Example 47, [4-(8-fluoro-1-methyl-[1,2,4]triazolo[4,3-a]quinoxaline-4-ylamino)-butyl]-carbamic acid-tert-butylester]: the IC50 under setting [1] was no more than 0.05 µM and the IC50 under setting [2] stood at 0.042 µM.
